Assay results reported in PubChem BioAssay (NCI).
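Dose response: 5 concentrations. Exposure: 48 h. Format: 96-well plates. Endpoint: linear interpolation; highest concentration if not reached. Abbreviation: GI50, concentration required for 50% inhibition of growth. TGI is the concentration that stops growth completely.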

What was measured:
Assay in all cases: growth of human tumour cells (NCI), 48 h
PC-3 prostate = tested on: PC-3 prostate
NCI/ADR-RES ovarian = tested on: NCI/ADR-RES ovarian
NCI-H23 lung = tested on: NCI-H23 lung
SNB-75 CNS = tested on: SNB-75 CNS
HCT-116 colon = tested on: HCT-116 colon
CCRF-CEM leukemia = tested on: CCRF-CEM leukemia
NCI-H226 lung = tested on: NCI-H226 lung
A498 renal = tested on: A498 renal
SK-MEL-5 melanoma = tested on: SK-MEL-5 melanoma
MALME-3M melanoma = tested on: MALME-3M melanoma
SR leukemia = tested on: SR leukemia
UO-31 renal = tested on: UO-31 renal
NCI-H522 lung = tested on: NCI-H522 lung
OVCAR-3 ovarian = tested on: OVCAR-3 ovarian
T-47D breast = tested on: T-47D breast
TK-10 renal = tested on: TK-10 renal
K-562 leukemia = tested on: K-562 leukemia
A549 NSCLC = tested on: A549 NSCLC
SNB-19 CNS = tested on: SNB-19 CNS
RPMI-8226 leukemia = tested on: RPMI-8226 leukemia
M14 melanoma = tested on: M14 melanoma
HL-60(TB) leukemia = tested on: HL-60(TB) leukemia
MDA-MB-435 = tested on: MDA-MB-435
MOLT-4 leukemia = tested on: MOLT-4 leukemia
SF-539 CNS = tested on: SF-539 CNS
MCF7 breast = tested on: MCF7 breast
OVCAR-5 ovarian = tested on: OVCAR-5 ovarian
OVCAR-8 ovarian = tested on: OVCAR-8 ovarian
U251 CNS = tested on: U251 CNS
HCT-15 colon = tested on: HCT-15 colon
DU-145 prostate = tested on: DU-145 prostate
NCI-H460 lung = tested on: NCI-H460 lung
HS 578T breast = tested on: HS 578T breast
SW-620 colon = tested on: SW-620 colon
SF-268 CNS = tested on: SF-268 CNS
KM12 colon = tested on: KM12 colon
ACHN renal = tested on: ACHN renal
BT-549 breast = tested on: BT-549 breast
HOP-92 NSCLC = tested on: HOP-92 NSCLC
SF-295 CNS = tested on: SF-295 CNS
MDA-MB-231 breast = tested on: MDA-MB-231 breast
OVCAR-4 ovarian = tested on: OVCAR-4 ovarian
HT29 colon = tested on: HT29 colon
UACC-257 melanoma = tested on: UACC-257 melanoma
UACC-62 melanoma = tested on: UACC-62 melanoma
RXF 393 renal = tested on: RXF 393 renal
SN12C renal = tested on: SN12C renal
SK-MEL-2 melanoma = tested on: SK-MEL-2 melanoma
HOP-62 NSCLC = tested on: HOP-62 NSCLC
SK-OV-3 ovarian = tested on: SK-OV-3 ovarian
IGROV1 ovarian = tested on: IGROV1 ovarian
SK-MEL-28 melanoma = tested on: SK-MEL-28 melanoma
CAKI-1 renal = tested on: CAKI-1 renal
786-0 renal = tested on: 786-0 renal
LOX IMVI melanoma = tested on: LOX IMVI melanoma
COLO 205 colon = tested on: COLO 205 colon
HCC-2998 colon = tested on: HCC-2998 colon

`Cn1cc(C2=C(c3cc[nH]c3)C(=O)NC2=O)c2ccccc21` gave a GI50 (PC-3 prostate) greater than 25 µM, a TGI (PC-3 prostate) greater than 25 µM and a GI50 (NCI/ADR-RES ovarian) greater than 25 µM. It also gave a TGI (NCI/ADR-RES ovarian) greater than 25 µM, a GI50 (NCI-H23 lung) greater than 25 µM and a TGI (NCI-H23 lung) greater than 25 µM. The GI50 (SNB-75 CNS) was 1.96 µM, the TGI (SNB-75 CNS) was greater than 25 µM and the GI50 (HCT-116 colon) was greater than 25 µM. It also gave a TGI (HCT-116 colon) greater than 25 µM, a GI50 (CCRF-CEM leukemia) greater than 25 µM and a TGI (CCRF-CEM leukemia) greater than 25 µM. For the same molecule, the GI50 (NCI-H226 lung) was 15.5 µM, the TGI (NCI-H226 lung) was greater than 25 µM and the GI50 (A498 renal) was 8.98 µM. It also gave a TGI (A498 renal) greater than 25 µM, a GI50 (SK-MEL-5 melanoma) greater than 25 µM and a TGI (SK-MEL-5 melanoma) greater than 25 µM. The GI50 (MALME-3M melanoma) was greater than 25 µM, the TGI (MALME-3M melanoma) was greater than 25 µM and the GI50 (SR leukemia) was 12 µM. For the same molecule, the TGI (SR leukemia) was greater than 25 µM, the GI50 (UO-31 renal) was greater than 18.5 µM and the TGI (UO-31 renal) was greater than 25 µM. For the same molecule, the GI50 (NCI-H522 lung) was 24.3 µM, the TGI (NCI-H522 lung) was greater than 25 µM and the GI50 (OVCAR-3 ovarian) was greater than 22.7 µM. For the same molecule, the TGI (OVCAR-3 ovarian) was greater than 25 µM, the GI50 (T-47D breast) was greater than 17.5 µM and the TGI (T-47D breast) was greater than 25 µM. For the same molecule, the GI50 (TK-10 renal) was greater than 25 µM, the TGI (TK-10 renal) was greater than 25 µM and the GI50 (K-562 leukemia) was greater than 25 µM. The TGI (K-562 leukemia) was greater than 25 µM, the GI50 (A549 NSCLC) was greater than 25 µM and the TGI (A549 NSCLC) was greater than 25 µM. The GI50 (SNB-19 CNS) was greater than 25 µM, the TGI (SNB-19 CNS) was greater than 25 µM and the GI50 (RPMI-8226 leukemia) was greater than 25 µM. For the same molecule, the TGI (RPMI-8226 leukemia) was greater than 25 µM, the GI50 (M14 melanoma) was greater than 25 µM and the TGI (M14 melanoma) was greater than 25 µM. For the same molecule, the GI50 (HL-60(TB) leukemia) was greater than 25 µM, the TGI (HL-60(TB) leukemia) was greater than 25 µM and the GI50 (MDA-MB-435) was 19.7 µM. The TGI (MDA-MB-435) was greater than 25 µM, the GI50 (MOLT-4 leukemia) was greater than 25 µM and the TGI (MOLT-4 leukemia) was greater than 25 µM. For the same molecule, the GI50 (SF-539 CNS) was greater than 25 µM, the TGI (SF-539 CNS) was greater than 25 µM and the GI50 (MCF7 breast) was 11.8 µM. For the same molecule, the TGI (MCF7 breast) was greater than 25 µM, the GI50 (OVCAR-5 ovarian) was greater than 25 µM and the TGI (OVCAR-5 ovarian) was greater than 25 µM. The GI50 (OVCAR-8 ovarian) was greater than 25 µM, the TGI (OVCAR-8 ovarian) was greater than 25 µM and the GI50 (U251 CNS) was greater than 25 µM. The TGI (U251 CNS) was greater than 25 µM, the GI50 (HCT-15 colon) was greater than 25 µM and the TGI (HCT-15 colon) was greater than 25 µM. The GI50 (DU-145 prostate) was greater than 25 µM, the TGI (DU-145 prostate) was greater than 25 µM and the GI50 (NCI-H460 lung) was greater than 25 µM. The TGI (NCI-H460 lung) was greater than 25 µM, the GI50 (HS 578T breast) was 9.97 µM and the TGI (HS 578T breast) was greater than 25 µM. The GI50 (SW-620 colon) was greater than 25 µM, the TGI (SW-620 colon) was greater than 25 µM and the GI50 (SF-268 CNS) was greater than 25 µM. The TGI (SF-268 CNS) was greater than 25 µM, the GI50 (KM12 colon) was 25 µM and the TGI (KM12 colon) was greater than 25 µM. The GI50 (ACHN renal) was greater than 25 µM, the TGI (ACHN renal) was greater than 25 µM and the GI50 (BT-549 breast) was greater than 17.9 µM. The TGI (BT-549 breast) was greater than 25 µM, the GI50 (HOP-92 NSCLC) was greater than 25 µM and the TGI (HOP-92 NSCLC) was greater than 25 µM. For the same molecule, the GI50 (SF-295 CNS) was greater than 25 µM, the TGI (SF-295 CNS) was greater than 25 µM and the GI50 (MDA-MB-231 breast) was greater than 25 µM. For the same molecule, the TGI (MDA-MB-231 breast) was greater than 25 µM, the GI50 (OVCAR-4 ovarian) was greater than 25 µM and the TGI (OVCAR-4 ovarian) was greater than 25 µM. The GI50 (HT29 colon) was greater than 25 µM, the TGI (HT29 colon) was greater than 25 µM and the GI50 (UACC-257 melanoma) was greater than 25 µM. The TGI (UACC-257 melanoma) was greater than 25 µM, the GI50 (UACC-62 melanoma) was greater than 25 µM and the TGI (UACC-62 melanoma) was greater than 25 µM. For the same molecule, the GI50 (RXF 393 renal) was 18.3 µM, the TGI (RXF 393 renal) was greater than 25 µM and the GI50 (SN12C renal) was greater than 25 µM. For the same molecule, the TGI (SN12C renal) was greater than 25 µM, the GI50 (SK-MEL-2 melanoma) was greater than 25 µM and the TGI (SK-MEL-2 melanoma) was greater than 25 µM. The GI50 (HOP-62 NSCLC) was greater than 25 µM, the TGI (HOP-62 NSCLC) was greater than 25 µM and the GI50 (SK-OV-3 ovarian) was greater than 23.3 µM. For the same molecule, the TGI (SK-OV-3 ovarian) was greater than 25 µM, the GI50 (IGROV1 ovarian) was greater than 25 µM and the TGI (IGROV1 ovarian) was greater than 25 µM. For the same molecule, the GI50 (SK-MEL-28 melanoma) was greater than 25 µM, the TGI (SK-MEL-28 melanoma) was greater than 25 µM and the GI50 (CAKI-1 renal) was greater than 25 µM. It also gave a TGI (CAKI-1 renal) greater than 25 µM, a GI50 (786-0 renal) greater than 25 µM and a TGI (786-0 renal) greater than 25 µM. For the same molecule, the GI50 (LOX IMVI melanoma) was greater than 25 µM, the TGI (LOX IMVI melanoma) was greater than 25 µM and the GI50 (COLO 205 colon) was greater than 25 µM. It also gave a TGI (COLO 205 colon) greater than 25 µM, a GI50 (HCC-2998 colon) greater than 25 µM and a TGI (HCC-2998 colon) greater than 25 µM.
